Assay results reported in PMC10005104 (Molecules, 2023).
“And” between values parts separate entries of the source, which are not always exact repeats. Equal values may be shown once. Where a name gives a salt, the structure may show the parent alone. Read-outs that look alike come from different tables or passages of the source. Marks after values point to notes of the source that are not given here.

Tests used:
[1] = biological target: T1, BuChE from equine serum (eqBuChE) (Equus caballus, UniProt P81908); assay: biochemical; conditions: for inhibition at 10 µM: read-out: eqBuChE % inh
T1 construct: BuChE from equine serum (eqBuChE); purchased Sigma-Aldrich (Steinheim, Germany); host or cells: equine serum
Description: AChE from electrophorus electricus and BuChE from equine serum were purchased from Sigma-Aldrich (Steinheim, Germany). The whole procedure was performed as previously described, using a modified Ellman method in 96-well microplates. […] Initial screening was performed for compounds at a concentration of […]. The percentage of inhibition was calculated by comparison with a blank sample (100% enzyme activity). […] Each concentration was measured in triplicate. IC50 values were calculated using GrapPad Prism 9 software (GraphPad Software, San Diego, CA, USA). Data are expressed as mean ± SEM.

human H3 receptor (hH3R) = biological target: T2, human H3 receptor (hH3R) (Homo sapiens, UniProt Q9Y5N1); assay: [3H]-Nα-methylhistamine radioligand binding assay, HEK293 cell membranes expressing hH3R; conditions: hH3R Ki Mean [CI 95%], HEK293 cells expressing human H3 receptor; at least three independent repetitions
T2 construct: expressed in transfected cells; host or cells: HEK293
Description: The affinity for hH3R was assessed in vitro in radioligand binding assays, using membrane preparations of HEK293 cells stably expressing hH3R, while [^3H]-N^α-methylhistamine was used as a radioligand. The exact procedure was described previously by Kottke et al.. Novel compounds were tested as oxalic acid salts. […]. The activity depended on all three variables, i.e., the presence of an amine group, the chain length (five or six carbons), and the type of substituent in the phenyl ring. With regard to the change in the amine moiety, it can be observed that, regardless of the length of the chain and the type of R substituent, the activity of the derivatives was arranged in the following order: 3-methylpiperidine ≥ piperidine ≥ azepane >> 4-metylpiperidine derivatives. Regarding the length of the carbon chain, compounds bearing the pentylene chain are characterized by a higher binding affinity to the receptor than hexylene derivatives (exception: 10). […]
H3R receptor affinity assays were performed in the radioligand competition assay. Human H3R was stably expressed in HEK293 cells. [^3H]-N^α-Methylhistamine (KD = 3.08 nM) was used as the radioligand. The compounds used in the experiments were dissolved in DMSO. The precise experiment was performed as previously described. Complete curves were obtained for at least seven approximate concentrations, in at least three independent experiments, performed at least in duplicate. Ki values were calculated using the Cheng–Prusoff equation. Results are presented as mean values with confidence intervals (CI) (95%).

hMAO B = biological target: T3, hMAO B (Homo sapiens, UniProt P27338); assay: fluorometric Amplex red MAO assay; assay type: biochemical; conditions: read-out: hMAO B % inh
T3 construct: purchased Sigma-Aldrich (Steinheim, Germany)
T3 sequence (P27338 1-520): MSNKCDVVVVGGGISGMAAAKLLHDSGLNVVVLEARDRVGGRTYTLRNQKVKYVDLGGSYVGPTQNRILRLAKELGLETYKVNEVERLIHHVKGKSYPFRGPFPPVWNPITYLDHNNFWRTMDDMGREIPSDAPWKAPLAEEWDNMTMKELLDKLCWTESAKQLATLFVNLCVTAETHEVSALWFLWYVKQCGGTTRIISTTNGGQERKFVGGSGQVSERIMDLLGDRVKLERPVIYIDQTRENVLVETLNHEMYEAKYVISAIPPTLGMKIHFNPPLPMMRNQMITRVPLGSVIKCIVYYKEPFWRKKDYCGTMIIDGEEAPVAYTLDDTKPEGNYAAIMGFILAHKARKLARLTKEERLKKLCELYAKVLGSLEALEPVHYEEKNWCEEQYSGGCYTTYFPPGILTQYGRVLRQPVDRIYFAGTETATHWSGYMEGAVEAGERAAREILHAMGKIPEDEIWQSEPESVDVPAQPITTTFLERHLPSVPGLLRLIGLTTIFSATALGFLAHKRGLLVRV
Description: The ability to inhibit MAO B was estimated by a fluorescence assay, as previously described.
The enzyme was purchased from Sigma-Aldrich (Steinheim, Germany). Screening was carried out at a concentration of 1 micromolar. Inhibitor activity was measured in the presence of p-tyramine.
Data are expressed as mean values of two independent experiments.

[2] = biological target: T4, AChE from electrophorus electricus (eeAChE) (Electrophorus electricus, UniProt O42275); assay: modified Ellman colorimetric assay, eeAChE; assay type: biochemical; conditions: for inhibition at 10 µM: read-out: eeAChE % inh; for IC50: three independent experiments, read-out: eeAChE IC50 Mean ± SEM
T4 construct: purchased Sigma-Aldrich (Steinheim, Germany)
Description: All compounds were tested at a concentration of 10 µM in a modified colorimetric method first described by Ellman et al. in the 1960s, using AChE from electrophorus electricus (eeAChE) and BuChE from equine serum (eqBuChE). […]. All results are collected in Table 1. […]. […] No correlation was observed between inhibitory activity and hH3R affinity. The most interesting compounds were among the azepane derivatives. […]. AChE from electrophorus electricus and BuChE from equine serum were purchased from Sigma-Aldrich (Steinheim, Germany). The whole procedure was performed as previously described, using a modified Ellman method in 96-well microplates. Absorbance was measured using an EnSpire multimode microplate reader (PerkinElmer, Waltham, MA, USA) at 412 nm. Initial screening was performed for compounds at a concentration of […]. The percentage of inhibition was calculated by comparison with a blank sample (100% enzyme activity). For compounds showing >70% inhibition of enzyme activity, IC50 values were determined, measuring absorbance at six different inhibitor concentrations. Each concentration was measured in triplicate. IC50 values were calculated using GrapPad Prism 9 software (GraphPad Software, San Diego, CA, USA). Data are expressed as mean ± SEM.

SH-SY5Y cells = assay: MTS assay in SH-SY5Y cells; assay type: cell-based; conditions: for SH-SY5Y Cell Viability (%): at 50 µM, percentage of control (vehicle-treated cells)
Description: (§1) . After the indicated time, the MTS reagent was added directly to the cultured cells for 1 h, and then the absorbance at 490 nm was read. […] The results are presented in Table 2 and Figures S1 and S2 (Supplementary Materials).
(§2) The hepatoma cell line HepG2 (ATCC® HB-8065TM) and SH-SY5Y CRL-2266 neuroblastoma cell line were used to evaluate the toxicity of tested compounds. Tests were conducted as described previously. The CellTiter 96® Aqueous Non-Radioactive Cell Proliferation Assay was purchased from Promega (Madison, WI, USA). […]. […] Each experiment was performed twice, in triplicate.

MTS assay in HepG2 cells = assay type: cell-based; conditions: human, HepG2 hepatoma cells; at 50 µM, percentage of control (vehicle-treated cells); read-out: HepG2 Cell Viability (%)
Description: as §1, §2

HepG2 cells = assay: MTS assay in HepG2 cells; assay type: cell-based; conditions: Homo sapiens, HepG2; MTS assay, 48 h of exposure
Description: as §1, §2

[3] = MTS assay, statements on both cell lines together; assay type: cell-based, human; conditions: human, HepG2 hepatoma cells and SH-SY5Y neuroblastoma cells; HepG2 48 h, SH-SY5Y 24 h; up to 50 µM; read-out: cell viability at the highest doses tested
[4] = MTS assay in SH-SY5Y cells; assay type: cell-based; conditions: human, SH-SY5Y neuroblastoma cells; at 50 µM, percentage of control (vehicle-treated cells); read-out: SH-SY5Y Cell Viability (%)
Description: as §1, §2

hH3R = conditions: cited from earlier work
[5] = biological target: T4, AChE from electrophorus electricus (eeAChE); conditions: at 10 µM; cited from earlier work
[6] = at 1 µM, two independent experiments

T1 sequence (P81908 whole entry): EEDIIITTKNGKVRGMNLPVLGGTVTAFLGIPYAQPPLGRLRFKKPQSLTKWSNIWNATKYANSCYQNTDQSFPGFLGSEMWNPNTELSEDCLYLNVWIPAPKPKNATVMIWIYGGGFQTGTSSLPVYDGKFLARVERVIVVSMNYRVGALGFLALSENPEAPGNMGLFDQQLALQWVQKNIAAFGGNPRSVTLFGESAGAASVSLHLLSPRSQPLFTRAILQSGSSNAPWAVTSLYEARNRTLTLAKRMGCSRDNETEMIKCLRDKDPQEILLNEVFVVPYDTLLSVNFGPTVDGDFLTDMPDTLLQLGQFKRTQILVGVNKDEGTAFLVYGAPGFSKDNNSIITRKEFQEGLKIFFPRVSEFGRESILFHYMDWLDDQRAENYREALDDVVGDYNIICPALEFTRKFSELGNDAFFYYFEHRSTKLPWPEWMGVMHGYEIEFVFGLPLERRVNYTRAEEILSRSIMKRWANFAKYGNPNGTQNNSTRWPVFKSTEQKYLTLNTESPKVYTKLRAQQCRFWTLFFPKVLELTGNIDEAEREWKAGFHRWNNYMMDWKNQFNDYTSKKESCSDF
T2 sequence (Q9Y5N1 whole entry): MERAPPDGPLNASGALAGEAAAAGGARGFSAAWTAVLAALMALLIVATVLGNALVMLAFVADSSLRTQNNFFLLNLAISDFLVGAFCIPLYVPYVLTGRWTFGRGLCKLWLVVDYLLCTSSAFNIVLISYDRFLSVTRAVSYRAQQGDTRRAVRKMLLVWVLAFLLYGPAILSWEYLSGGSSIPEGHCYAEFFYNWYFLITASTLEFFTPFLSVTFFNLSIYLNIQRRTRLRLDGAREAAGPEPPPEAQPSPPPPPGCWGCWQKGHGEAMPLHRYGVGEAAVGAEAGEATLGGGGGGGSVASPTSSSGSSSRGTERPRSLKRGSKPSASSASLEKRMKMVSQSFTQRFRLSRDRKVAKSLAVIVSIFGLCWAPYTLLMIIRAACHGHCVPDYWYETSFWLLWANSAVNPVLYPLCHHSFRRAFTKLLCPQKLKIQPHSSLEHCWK
T4 sequence (O42275 24-633): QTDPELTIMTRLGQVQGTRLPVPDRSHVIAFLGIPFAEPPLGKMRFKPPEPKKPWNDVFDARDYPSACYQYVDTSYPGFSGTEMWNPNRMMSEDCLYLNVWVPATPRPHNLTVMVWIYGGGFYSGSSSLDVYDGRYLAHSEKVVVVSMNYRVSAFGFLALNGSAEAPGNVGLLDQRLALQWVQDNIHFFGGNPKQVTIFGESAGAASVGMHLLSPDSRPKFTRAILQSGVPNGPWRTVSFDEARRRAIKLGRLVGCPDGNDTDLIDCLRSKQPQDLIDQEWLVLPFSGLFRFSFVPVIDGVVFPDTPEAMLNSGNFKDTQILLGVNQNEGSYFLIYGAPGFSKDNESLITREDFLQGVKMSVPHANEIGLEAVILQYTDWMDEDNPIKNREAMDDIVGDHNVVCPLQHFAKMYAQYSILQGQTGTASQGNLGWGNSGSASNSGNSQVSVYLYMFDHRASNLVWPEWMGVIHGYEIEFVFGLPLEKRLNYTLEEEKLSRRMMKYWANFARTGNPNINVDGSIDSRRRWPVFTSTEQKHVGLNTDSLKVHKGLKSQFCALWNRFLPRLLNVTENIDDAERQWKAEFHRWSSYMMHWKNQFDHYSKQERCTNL

Structure (SMILES)	inhibition at 10 µM [1]	Ki (human H3 receptor (hH3R))	inhibition at 1 µM (hMAO B; [6])	inhibition at 10 µM [2]	IC50 [2]	viability at 48 h, 50 µM (MTS assay in HepG2 cells)	IC50 (HepG2 cells)	viability at 50 µM [3]	other results
CC(=O)c1ccc(OCCCCCN2CCCCC2)cc1 [Compound 2, 1-(4-((5-(Piperidin-1-yl)pentyl)oxy)phenyl)ethan-1-one hydrogen oxalate]	25%	< 50 nM and 34 nM	2%	45%					
CC(=O)c1ccc(OCCCCCCN2CCCCC2)cc1 [Compound 3, 1-(4-((6-(Piperidin-1-yl)hexyl)oxy)phenyl)ethan-1-one hydrogen oxalate]	23%	75 nM	3%	67%					
CCC(=O)c1ccc(OCCCCCN2CCCCC2)cc1 [Compound 4, 1-(4-((5-(Piperidin-1-yl)pentyl)oxy)phenyl)propan-1-one hydrogen oxalate]	32%	< 50 nM and 24 nM	16%	49%					
CCC(=O)c1ccc(OCCCCCCN2CCCCC2)cc1.O=C(O)C(=O)O [Compound 5, 1-(4-((6-(Piperidin-1-yl)hexyl)oxy)phenyl)propan-1-one hydrogen oxalate]		< 50 nM and 41 nM	22%		4790 ± 190 nM	69.5 ± 2.14%	158000 nM	> 50%	SH-SY5Y Cell Viability (%) (SH-SY5Y cells): No toxic effect; IC50 ([1]; three independent experiments, read-out: eqBuChE IC50 Mean ± SEM): 1350 ± 40 nM
CC(=O)c1ccc(OCCCCCN2CCCC(C)C2)cc1 (stereo not shown) [Compound 6, 1-(4-((5-(3-Methylpiperidin-1-yl)pentyl)oxy)phenyl)ethan-1-one hydrogen oxalate]	14%	< 50 nM and 26 nM	10%		3060 ± 100 nM	74.3 ± 5.58%	120000 nM	> 50%	viability at 24 h, 50 µM [4]: 86.2 ± 2.2%; IC50 (SH-SY5Y cells; Homo sapiens, SH-SY5Y, MTS assay, 24 h of exposure): 149000 nM
CC(=O)c1ccc(OCCCCCCN2CCCC(C)C2)cc1.O=C(O)C(=O)O (stereo not shown) [Compound 7, 1-(4-((6-(3-Methylpiperidin-1-yl)hexyl)oxy)phenyl)ethan-1-one hydrogen oxalate]	18%	72 nM	0%		1750 ± 50 nM	72.4 ± 4.54%	148000 nM	> 50%	SH-SY5Y Cell Viability (%) (SH-SY5Y cells): No toxic effect
CCC(=O)c1ccc(OCCCCCCN2CCCC(C)C2)cc1 (stereo not shown) [Compound 9, 1-(4-((6-(3-Methylpiperidin-1-yl)hexyl)oxy)phenyl)propan-1-one hydrogen oxalate]	66%	< 50 nM and 38 nM	12%	68%					
CC(=O)c1ccc(OCCCCCN2CCC(C)CC2)cc1 [Compound 10, 1-(4-((5-(4-Methylpiperidin-1-yl)pentyl)oxy)phenyl)ethan-1-one hydrogen oxalate]	43%	120 nM	0%	60%					
CC(=O)c1ccc(OCCCCCCN2CCC(C)CC2)cc1.O=C(O)C(=O)O [Compound 11, 1-(4-((6-(4-Methylpiperidin-1-yl)hexyl)oxy)phenyl)ethan-1-one hydrogen oxalate]	49%	106 nM	0%		2650 ± 110 nM	77.5 ± 0.94%	223000 nM	> 50%	SH-SY5Y Cell Viability (%) (SH-SY5Y cells): No toxic effect
CCC(=O)c1ccc(OCCCCCCN2CCC(C)CC2)cc1.O=C(O)C(=O)O [Compound 13, 1-(4-((6-(4-Methylpiperidin-1-yl)hexyl)oxy)phenyl)propan-1-one hydrogen oxalate]	65%	58 nM	1%		2560 ± 80 nM	64.7 ± 4.4%	105000 nM	> 50%	SH-SY5Y Cell Viability (%) (SH-SY5Y cells): No toxic effect
CC(=O)c1ccc(OCCCCCN2CCCCCC2)cc1 [Compound 14, 1-(4-((5-(Azepan-1-yl)pentyl)oxy)phenyl)ethan-1-one hydrogen oxalate]	63%	52 nM	37%	63%					
CC(=O)c1ccc(OCCCCCCN2CCCCCC2)cc1 [Compound 15, 1-(4-((6-(Azepan-1-yl)hexyl)oxy)phenyl)ethan-1-one hydrogen oxalate]	68%	79 nM	6%	67%					
Cc1ccc2oc(-c3ccc(OCCCCCCN4CCCCCC4)cc3)cc(=O)c2c1 [III]									Ki (hH3R): 160 nM
O=c1c2ccccc2oc2ccc(OCCCCCN3CCCCCC3)cc12 [IV]									Ki (hH3R): 170 nM
Clc1ccc(CCCOCCCN2CCCCC2)cc1 [pitolisant]									eeAChE % inh [5]: (3%) ^g
C#CCN[C@@H]1CCc2ccccc21 [rasagiline, reference compound]									inhibition at 1 µM (hMAO B): 100%
